Residues, ends and D or L forms follow the SMILES beside them. *: point of attachment. Cbz = O=C(OCc1ccccc1)*
Key:
NDV F48E9 [1] = assay: microbe, parasite or virus in culture; type: cell-based, Newcastle disease virus; conditions: for IC50: avian paramyxovirus 1, 24 h
IFN-β = type: cell-based
β-catenin = type: cell-based
[2] = system: NDV Blackbird/China/08(IX); assay: microbe, parasite or virus in culture; type: cell-based, Newcastle disease virus; conditions: avian paramyxovirus 1, 24 h, read-out: IC50 Blackbird/China/08(IX)
[3] = system: NDV PPMV-1/SX-01/Ch/15(VI); assay: microbe, parasite or virus in culture; type: cell-based, Newcastle disease virus; conditions: avian paramyxovirus 1, 24 h, read-out: IC50 PPMV-1/SX-01/Ch/15(VI)
NDV La sota (II) = assay: microbe, parasite or virus in culture; type: cell-based, Newcastle disease virus; conditions: avian paramyxovirus 1, 24 h, read-out: IC50 La sota (II)
PPRV = assay: microbe, parasite or virus in culture; type: cell-based, peste des petits ruminants virus
CDV = assay: microbe, parasite or virus in culture; type: cell-based, canine distemper virus
VSV = assay: microbe, parasite or virus in culture; type: cell-based, vesicular stomatitis virus
PRRSV = assay: microbe, parasite or virus in culture; type: cell-based, porcine reproductive and respiratory syndrome virus
AIV = assay: microbe, parasite or virus in culture; type: cell-based, avian influenza virus
PRV = assay: microbe, parasite or virus in culture; type: cell-based, pseudorabies virus
[4] = system: PPRV, CDV, VSV, PRRSV, AIV, PRV; assay: organism not typed; type: cell-based; conditions: read-out: IC50 against these viruses (PPRV, CDV, VSV, PRRSV, AIV, PRV)
NDV F48E9 [5] = type: cell-based, Newcastle disease virus
NDV F48E9 [6] = type: cell-based, Newcastle disease virus; remark: listed apart in the source
NDV F48E9 [7] = type: cell-based, Newcastle disease virus; remark: listed apart in the source
[8] = system: genes downstream of the Wnt/β-catenin pathway; type: cell-based
Wnt/β-catenin pathway = type: cell-based
chicken IFN-β promoter = type: cell-based
OASL = type: cell-based
MX1 = type: cell-based
GSK-3β [9] = type: binding
GSK-3β [10] = type: binding; remark: listed apart in the source
HSP90β [11] = molecular target: T1, HSP90β (Gallus gallus, UniProt Q04619); assay: Cellular thermal shift assay (CETSA), HSP90β; type: binding; conditions: 200 μM, DF-1 cell lysate
T1 construct: endogenous in cells; host or cells: DF-1 cell lysate
T1 sequence (Q04619 whole entry): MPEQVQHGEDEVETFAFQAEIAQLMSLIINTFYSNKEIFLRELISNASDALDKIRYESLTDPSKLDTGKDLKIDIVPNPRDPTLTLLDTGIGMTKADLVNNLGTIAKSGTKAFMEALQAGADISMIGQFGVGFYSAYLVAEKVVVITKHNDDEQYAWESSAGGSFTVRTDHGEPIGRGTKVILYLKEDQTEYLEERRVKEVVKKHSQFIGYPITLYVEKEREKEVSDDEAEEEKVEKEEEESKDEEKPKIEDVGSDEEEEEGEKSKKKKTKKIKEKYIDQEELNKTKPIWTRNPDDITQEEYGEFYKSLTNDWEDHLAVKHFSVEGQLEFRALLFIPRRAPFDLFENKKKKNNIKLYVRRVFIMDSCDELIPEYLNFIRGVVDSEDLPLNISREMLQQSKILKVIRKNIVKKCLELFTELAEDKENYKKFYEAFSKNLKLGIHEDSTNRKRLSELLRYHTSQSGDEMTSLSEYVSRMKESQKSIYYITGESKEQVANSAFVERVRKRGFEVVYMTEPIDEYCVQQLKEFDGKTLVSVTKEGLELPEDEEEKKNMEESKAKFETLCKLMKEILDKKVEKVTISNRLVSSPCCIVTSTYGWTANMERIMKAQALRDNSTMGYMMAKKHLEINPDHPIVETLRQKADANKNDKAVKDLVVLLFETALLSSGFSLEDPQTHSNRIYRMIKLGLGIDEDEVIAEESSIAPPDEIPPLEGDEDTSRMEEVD

HSP90β [12] = molecular target: T1, HSP90β; assay: Drug affinity responsive target stability (DARTS), HSP90β; type: binding; conditions: 200 μM, DF-1 cell lysate, 50 ng of pronase
F48E9 L protein = type: cell-based, Newcastle disease virus
NP, P protein = type: cell-based, Newcastle disease virus
in vitro = conditions: chicken

SMILES: C=CCNC1=C2C[C@@H](C)C[C@H](OC)[C@H](O)[C@@H](C)/C=C(\C)[C@H](OC(N)=O)[C@@H](OC)/C=C\C=C(/C)C(=O)NC(=CC1=O)C2=O [17-AAG]
- reduction of infectious virus particle production (NDV F48E9 [1]): 4.19 Log

SMILES: [Cl-].[Li+] [LiCl, reference compound]
- reduction in infectious virus particle production (NDV F48E9 [1]): 2.69 Log
- expression of IFN-β (IFN-β): enhanced

SMILES: CC(C)C[C@@H](C=O)NC(=O)[C@H](CC(C)C)NC(=O)[C@H](CC(C)C)NC(=O)OCc1ccccc1 [MG-132] (Cbz-Leu-Leu-Leu-aldehyde)
- amounts of β-catenin in NDV-infected cells (β-catenin): significantly restored

SMILES: NC(=O)c1ncn([C@@H]2O[C@H](CO)[C@@H](O)[C@H]2O)n1 [Ribavirin, reference compound]
- IC50 (NDV F48E9 [1]): 8620 ± 1440 nM
- IC50 [2]: 10400 ± 2850 nM
- IC50 [3]: 11600 ± 2130 nM
- IC50 (NDV La sota (II)): 7970 ± 1590 nM

SMILES: CCCCn1c2cc(O)ccc2c2ccnc(C)c21 [compound 11, 9-butyl-harmol]
- inhibitory rate (reduction compared to DMSO-treated cells), primary screening (NDV F48E9 [1]): higher than 99%
- reduction in infectious virus particle production, high dose of NDV (NDV F48E9 [1]): 3.08 Log
- reduction of infectious virus particle production (NDV F48E9 [1]): 5.26 Log
- IC50 (NDV F48E9 [1]): 490 ± 110 nM
- IC50 [2]: 630 ± 300 nM
- IC50 [3]: 710 ± 260 nM
- IC50 (NDV La sota (II)): 580 ± 80 nM
- inhibitory rate (reduction) against PPRV (PPRV): higher than 99%
- reduction of PPRV mRNA (PPRV): 100 fold
- IC50 (PPRV; peste-des-petits-ruminants virus, Vero, 24 h, read-out: IC50 PPRV): 380 ± 60 nM
- inhibitory rate (reduction) against CDV (CDV): higher than 99%
- reduction of CDV mRNA (CDV): 100 fold
- IC50 (CDV; canine distemper virus, Vero, 24 h, read-out: IC50 CDV): 400 ± 120 nM
- reduction in mRNA expression level of VSV (VSV): > 80%
- IC50 (VSV; Vesicular stomatitis virus, BHK-21, 24 h, read-out: IC50 VSV): 430 ± 160 nM
- reduction in mRNA expression level of PRRSV (PRRSV): > 80%
- IC50 (PRRSV; Porcine reproductive and respiratory syndrome virus, MARC145, 24 h, read-out: IC50 PRRSV): 540 ± 150 nM
- reduction in mRNA expression level of AIV (AIV): > 80%
- IC50 (AIV; unidentified influenza virus, A549, 24 h, read-out: IC50 AIV): 530 ± 180 nM
- reduction of mRNA of PRV (PRV): 66.83%
- IC50 (PRV; Suid alphaherpesvirus 1, BHK-21, 24 h, read-out: IC50 PRV): 810 ± 110 nM
- IC50 [4]: 380 to 810 nM
- NDV adsorption (NDV F48E9 [5]): not inhibited
- entry of NDV (NDV F48E9 [6]): no effect
- viral inhibition in time-of-addition study (NDV F48E9 [7]): significant viral inhibition
- MYC upregulation (transcriptome) [8]: 2.1287 fold
- PPARgamma upregulation (transcriptome) [8]: 2.7893 fold
- WISP1 upregulation (transcriptome) [8]: 5.2201 fold
- TOPFlash/FOPFlash luciferase activity (Wnt/β-catenin pathway): significantly activated
- IFN-β promoter activity with NDV infection (chicken IFN-β promoter): 2.89 fold
- IFN-β promoter activity without NDV infection (chicken IFN-β promoter): 4.90 fold
- expression of IFN-β with NDV infection (IFN-β): 1.95 fold
- expression of IFN-β without NDV infection (IFN-β): 3.04 fold
- expression of OASL upon F48E9 infection (OASL): 2.51 fold
- expression of MX1 upon F48E9 infection (MX1): 3.13 fold
- thermal stability of GSK-3β (CETSA) (GSK-3β [9]): strongly changed the thermal stability
- proteolysis of GSK-3β by pronase (DARTS) (GSK-3β [10]): less sensitive to proteolysis
- thermal stability of cellular HSP90β (CETSA) (HSP90β [11]): increased the thermal stability
- pronase-induced digestion of HSP90β (DARTS) (HSP90β [12]): prevented
- expression of L (F48E9 L protein): significant reduction
- expression of NP and expression of P (NP, P protein): not affected
- CC50 (in vitro): > 50000 nM

SMILES: COc1ccc2c(c1)[nH]c1c(C)nccc12 [harmine, reference compound]
- effect on NDV proliferation (harmine) (NDV F48E9 [1]): no effect
- anti-PRV activity (harmine) (PRV): excellent

SMILES: Cc1cc(/C=C2\SC(=O)N(c3ccccc3)C2=O)c(C)n1-c1cccnc1 [iCRT14]
- effect on the proliferation of NDV (NDV F48E9 [1]): no effect

SMILES: COC[C@H]1OC(=O)c2coc3c2[C@@]1(C)C1=C(C3=O)[C@@H]2CCC(=O)[C@@]2(C)C[C@H]1OC(C)=O [wortmannin]
- amounts of β-catenin in NDV-infected cells (β-catenin): no effect

From publication PMC10062145 (Journal of Virology, 2023)
